Structures are written as SMILES.

Consider 21 compounds from patent US8741897B2, “Glucocorticoid mimetics, methods of making them, pharmaceutical compositions and uses thereof” (Boehringer Ingelheim Pharmaceuticals Inc., priority 2003, dated 2014).

The target in test [1] is T1, human glucocorticoid receptor (GR) complex (Homo sapiens, UniProt P04150).
T1 construct: made in house; host or cells: insect expression system (baculovirus lysate)
T1 sequence (P04150 1-777): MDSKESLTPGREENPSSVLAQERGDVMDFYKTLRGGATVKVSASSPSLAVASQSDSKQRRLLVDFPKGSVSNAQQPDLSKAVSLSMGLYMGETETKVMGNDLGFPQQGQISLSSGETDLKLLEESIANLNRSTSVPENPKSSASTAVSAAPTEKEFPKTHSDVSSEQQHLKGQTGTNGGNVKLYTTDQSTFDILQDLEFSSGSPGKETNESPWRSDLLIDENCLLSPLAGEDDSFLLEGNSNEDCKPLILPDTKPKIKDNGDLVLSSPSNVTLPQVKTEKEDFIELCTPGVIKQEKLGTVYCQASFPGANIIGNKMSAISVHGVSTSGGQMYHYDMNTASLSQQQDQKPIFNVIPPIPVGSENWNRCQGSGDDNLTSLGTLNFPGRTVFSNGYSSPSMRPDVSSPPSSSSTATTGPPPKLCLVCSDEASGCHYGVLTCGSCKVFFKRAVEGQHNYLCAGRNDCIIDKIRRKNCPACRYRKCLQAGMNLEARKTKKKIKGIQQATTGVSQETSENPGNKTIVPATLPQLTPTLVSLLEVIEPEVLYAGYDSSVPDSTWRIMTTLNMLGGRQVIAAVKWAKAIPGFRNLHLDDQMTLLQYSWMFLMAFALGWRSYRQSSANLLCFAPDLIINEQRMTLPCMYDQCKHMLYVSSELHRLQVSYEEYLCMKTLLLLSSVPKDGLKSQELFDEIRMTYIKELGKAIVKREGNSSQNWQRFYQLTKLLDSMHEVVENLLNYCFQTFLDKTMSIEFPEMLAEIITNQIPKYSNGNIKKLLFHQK
Put plainly: Glucocorticoid receptor competitive binding assay (fluorescence polarization, TAMRA-labeled dexamethasone probe). The conditions noted are these: compounds of Formula (IA). The gist of the method:
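Fluorescence-polarization competition against 15 nM TAMRA-dexamethasone (stock added to the mix) for human GR complex from baculovirus lysate diluted 1:170. Buffer: 10 mM TES, 50 mM KCl, 20 mM Na2MoO4, 1.5 mM EDTA, 0.04% CHAPS, 10% glycerol, 1 mM DTT, pH 7.4. IC50 from 4-parameter logistic fit.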
A general note: In fluorescence polarisation assays a small probe gives low polarisation when free and higher when bound to something large.

The subject of test [2] is glucocorticoid receptor function. Put plainly: one or more of the above assays (GR binding and glucocorticoid receptor cell assays: aromatase, IL-6, TAT, MMTV-Luc, IL-8, ICAM-Luc). As to conditions: assay not specified per compound. Format: cell-based.

Consider `COc1ccc(C(C)(C)C)cc1C(C)(C)CC(O)(Cc1[nH]c2ccccc2c1C#N)C(F)(F)F` (stereo not drawn) [2-[4-(5-tert-Butyl-2-methoxyphenyl)-2-hydroxy-4-methyl-2-trifluoromethylpentyl]-1H-indole-3-carbonitrile], for which the “activity in the GR binding assay” value in test [1] is given as “potent activity”. Besides, in test [2], the “activity as agonists of the glucocorticoid receptor function in one or more of the above assays” value (from here on “activity as agonists”) was “potent agonists”.

Take `CC(C)(CC(O)(Cc1cc2cc(C(F)(F)F)ncc2[nH]1)C(F)(F)F)c1cc(Cl)cc2c1OCC2` (stereo not drawn) [4-(5-Chloro-2,3-dihydrobenzofuran-7-yl)-1,1,1-trifluoro-4-methyl-2-(5-trifluoromethyl-1H-pyrrolo[2,3-c]pyridin-2-ylmethyl)pentan-2-ol]: the “activity in the GR binding assay” value in test [1] is listed as “potent activity”. The “activity as agonists” value in test [2] is listed as “potent agonists”.

`CSc1ccc2[nH]c(CC(O)(CC(C)(C)c3cc(F)cc4c3OCC4)C(F)(F)F)cc2c1` (stereo not drawn) [1,1,1-Trifluoro-4-(5-fluoro-2,3-dihydrobenzofuran-7-yl)-4-methyl-2-(5-methylsulfanyl-1H-indol-2-ylmethyl)pentan-2-ol]: the “activity in the GR binding assay” value in test [1] is listed as “potent activity”. In test [2], the “activity as agonists” value is recorded as “potent agonists”.

Turning to `COc1ccc(F)cc1C(C)(C)CC(O)(Cc1cc2cc(NC(C)=O)ccc2[nH]1)C(F)(F)F` (stereo not drawn) [N-{2-[4-(5-Fluoro-2-methoxyphenyl)-2-hydroxy-4-methyl-2-trifluoromethylpentyl]-1H-indol-5-yl}acetamide], in test [1], the “activity in the GR binding assay” value is recorded as “potent activity”. In addition, the “activity as agonists” value in test [2] is listed as “potent agonists”.

For the compound `COc1ccc(F)cc1C(C)(C)CC(O)(Cc1cc2c(C#N)nccc2[nH]1)C(F)(F)F` (stereo not drawn) [2-[4-(5-Fluoro-2-methoxyphenyl)-2-hydroxy-4-methyl-2-trifluoromethylpentyl]-1H-pyrrolo[3,2-c]pyridine-4-carbonitrile], the “activity in the GR binding assay” value in test [1] is recorded as “potent activity”. In test [2], the “activity as agonists” value is on record as “potent agonists”.

Turning to `Cc1ccc(F)c2[nH]c(CC(O)(CC(C)(C)c3ccc(F)cc3O)C(F)(F)F)cc12` (stereo not drawn) [5-Fluoro-2-[4,4,4-trifluoro-3-(7-fluoro-4-methyl-1H-indol-2-ylmethyl)-3-hydroxy-1,1-dimethylbutyl]phenol], the “activity in the GR binding assay” value in test [1] was “potent activity”. In test [2], the “activity as agonists” value was “potent agonists”.

On to `COc1ccc(F)cc1C(C)(C)CC(O)(Cc1cc2c(C)nc(C)cc2[nH]1)C(F)(F)F` (stereo not drawn) [2-(4,6-Dimethyl-1H-pyrrolo[3,2-c]pyridin-2-ylmethyl)-1,1,1-trifluoro-4-(5-fluoro-2-methoxyphenyl)-4-methylpentan-2-ol], for which, in test [1], the “activity in the GR binding assay” value is “potent activity”. The “activity as agonists” value in test [2] is “potent agonists”.

`COc1ccc(F)cc1C(C)(C)CC(O)(Cc1cc2cc(C#N)ncc2[nH]1)C(F)(F)F` (stereo not drawn) [2-[4-(5-Fluoro-2-methoxyphenyl)-2-hydroxy-4-methyl-2-trifluoromethylpentyl]-1H-pyrrolo[2,3-c]pyridine-5-carbonitrile]: the “activity in the GR binding assay” value in test [1] is “potent activity”. For the same compound, the “activity as agonists” value in test [2] was “potent agonists”.

Take `CC(C)(CC(O)(Cc1cc2ccccc2[nH]1)C(F)(F)F)c1ccccc1C(F)(F)F` (stereo not drawn) [1,1,1-Trifluoro-2-(1H-indol-2-ylmethyl)-4-methyl-4-(2-trifluoromethylphenyl)pentan-2-ol]: the “activity in the GR binding assay” value in test [1] is recorded as “potent activity”. For the same compound, the “activity as agonists” value in test [2] is reported as “potent agonists”.

For the compound `Cc1cc(CC(O)(CC(C)(C)c2ccc(F)cc2O)C(F)(F)F)cc(C)n1` (stereo not drawn) [2-[3-(2,6-Dimethylpyridin-4-ylmethyl)-4,4,4-trifluoro-3-hydroxy-1,1-dimethylbutyl]-5-fluorophenol], in test [1], the “activity in the GR binding assay” value was “potent activity”. In addition, the “activity as agonists” value in test [2] is on record as “potent agonists”.

For the compound `Cc1ccc(F)cc1C(C)(C)CC(O)(Cn1ccc2ncccc21)C(F)(F)F` (stereo not drawn) [1,1,1-Trifluoro-4-(5-fluoro-2-methylphenyl)-4-methyl-2-pyrrolo[3,2-b]pyridin-1-ylmethylpentan-2-ol], in test [1], the “activity in the GR binding assay” value was “potent activity”. Further, the “activity as agonists” value in test [2] was “potent agonists”.

Turning to `CC(C)(CC(O)(Cc1cc2ccccc2[nH]1)C(F)(F)F)c1ccccn1` (stereo not drawn) [1,1,1-Trifluoro-2-(1H-indol-2-ylmethyl)-4-methyl-4-pyridin-2-ylpentan-2-ol], the “activity in the GR binding assay” value in test [1] is given as “potent activity”. For the same compound, in test [2], the “activity as agonists” value is “potent agonists”.

In the case of `COc1ccc(F)cc1C(C)(C)CC(O)(Cc1cc2nc(C#N)ccc2[nH]1)C(F)(F)F` (stereo not drawn) [2-[4-(5-Fluoro-2-methoxyphenyl)-2-hydroxy-4-methyl-2-trifluoromethylpentyl]-1H-pyrrolo[3,2-b]pyridine-5-carbonitrile], in test [1], the “activity in the GR binding assay” value is on record as “potent activity”. Also, the “activity as agonists” value in test [2] is given as “potent agonists”.

For `COc1ccc(C(C)C)cc1C(C)(C)CC(O)(Cc1[nH]c2ccccc2c1C#N)C(F)(F)F` (stereo not drawn) [2-[2-Hydroxy-4-(5-isopropyl-2-methoxyphenyl)-4-methyl-2-trifluoromethylpentyl]-1H-indole-3-carbonitrile], the “activity in the GR binding assay” value in test [1] was “potent activity”. Moreover, in test [2], the “activity as agonists” value was “potent agonists”.

As to `COC(=O)CNC(=O)c1ccc2[nH]c(CC(O)(CC(C)(C)c3cc(F)ccc3OC)C(F)(F)F)cc2c1` (stereo not drawn) [({2-[4-(5-Fluoro-2-methoxyphenyl)-2-hydroxy-4-methyl-2-trifluoromethylpentyl]-1H-indole-5-carbonyl}amino)acetic acid methyl ester], the “activity in the GR binding assay” value in test [1] is listed as “potent activity”. Also, the “activity as agonists” value in test [2] was “potent agonists”.

Consider `CC(C)(CC(O)(Cc1cc2cc(C(=O)N3CCOCC3)ccc2[nH]1)C(F)(F)F)c1cc(Br)cc2c1OCC2` (stereo not drawn) [{2-[4-(5-Bromo-2,3-dihydrobenzofuran-7-yl)-2-hydroxy-4-methyl-2-trifluoromethylpentyl]-1H-indol-5-yl}morpholin-4-ylmethanone], for which, in test [1], the “activity in the GR binding assay” value was “potent activity”. In addition, in test [2], the “activity as agonists” value is on record as “potent agonists”.

Take `Cc1ccc(C(C)(C)CC(O)(Cc2ccnc3ccccc23)C(F)(F)F)cc1C` (stereo not drawn) [4-(3,4-Dimethylphenyl)-1,1,1-trifluoro-4-methyl-2-quinolin-4-ylmethylpentan-2-ol]: the “activity in the GR binding assay” value in test [1] is recorded as “potent activity”. For the same compound, the “activity as agonists” value in test [2] was “potent agonists”.

Regarding `COc1ccc(F)cc1C(C)(C)CC(O)(Cc1cc2nnccc2[nH]1)C(F)(F)F` (stereo not drawn) [1,1,1-Trifluoro-4-(5-fluoro-2-methoxyphenyl)-4-methyl-2-(5H-pyrrolo[3,2-c]pyridazin-6-ylmethyl)pentan-2-ol], in test [1], the “activity in the GR binding assay” value is listed as “potent activity”. The “activity as agonists” value in test [2] is “potent agonists”.

`CC(C)(CC(O)(Cc1cc2ncncc2[nH]1)C(F)(F)F)c1cc(Cl)cc2c1OCC2` (stereo not drawn) [4-(5-Chloro-2,3-dihydrobenzofuran-7-yl)-1,1,1-trifluoro-4-methyl-2-(5H-pyrrolo[3,2-d]pyrimidin-6-ylmethyl)pentan-2-ol]: in test [1], the “activity in the GR binding assay” value is recorded as “potent activity”. For the same compound, the “activity as agonists” value in test [2] was “potent agonists”.

`COc1ccc(OC)c(C(C)(C)CC(O)(Cc2cc3ccncc3[nH]2)C(F)(F)F)c1` (stereo not drawn) [4-(2,5-Dimethoxyphenyl)-1,1,1-trifluoro-4-methyl-2-(1H-pyrrolo[2,3-c]pyridin-2-ylmethyl)pentan-2-ol]: the “activity in the GR binding assay” value in test [1] was “potent activity”. Also, in test [2], the “activity as agonists” value is recorded as “potent agonists”.

In the case of `Cc1cc2[nH]c(CC(O)(CC(C)(C)c3cc(Cl)cc4c3OCC4)C(F)(F)F)cc2cn1` (stereo not drawn) [4-(5-Chloro-2,3-dihydrobenzofuran-7-yl)-1,1,1-trifluoro-4-methyl-2-(6-methyl-1H-pyrrolo[3,2-c]pyridin-2-ylmethyl)pentan-2-ol], the “activity in the GR binding assay” value in test [1] is reported as “potent activity”. In addition, the “activity as agonists” value in test [2] was “potent agonists”.
